Test results reported in PMC12869404 (Virology, 2020).
Where no end group is shown, it is not given here.

Tested on: glycan-specific, HIV-1 gp120 NAb, 2G12
Experiment: M13 Binding ELISA, assay control NAb 2G12
Conditions: control NAb 2G12 coated 1 μg/well; > 2.5E+9 = no binding

Substance | Binding Titer (M13/ml) 2G12 [M13/ml]
PFGFELW (disulfide (positions not given here)) [Z13 PhD c7c-2] | > 2.5E+9
GYWSDYWGMTTH [4E10 PhD 12–7] | > 2.5E+9
SEMDDKWAKMKI [2F5 PhD 12–2] | > 2.5E+9
NWFDRSHTLFHS [4E10 PhD 12–3] | > 2.5E+9
HNSQNLDRWAII [2F5 PhD 12–1] | > 2.5E+9
QSYNWFDHTRWI [4E10 PhD 12–8] | > 2.5E+9
DMRSIFHDNPFN [4E10 PhD 12–6] | > 2.5E+9
SIFDWPR (disulfide (positions not given here)) [4E10 PhD c7c-1] | > 2.5E+9
LPNWFNLSSNLM [4E10 PhD 12–11] | > 2.5E+9
ALCLGPR (disulfide (positions not given here)) [Z13 PhD c7c-1] | > 2.5E+9
TLDIFRN (disulfide (positions not given here)) [4E10 PhD c7c-3] | > 2.5E+9
ERMLFEW (disulfide (positions not given here)) [4E10 PhD c7c-2] | > 2.5E+9
SEELDKWYNTLT [2F5 PhD 12–3] | > 2.5E+9
DKWASFD (disulfide (positions not given here)) [2F5 PhD c7c-2] | > 2.5E+9
NWFNLTQTLMPR [4E10 PhD 12–1] | > 2.5E+9
TNFFELTTKLHR [4E10 PhD 12–10] | > 2.5E+9
NFWELSKYLHMA [4E10 PhD 12–9] | > 2.5E+9
NWFDGTTTLWHR [4E10 PhD 12–4] | > 2.5E+9
YFFDRSS (disulfide) [4E10 PhD c7c-4] | > 2.5E+9
SHTLNFLDLTST [Z13 PhD 12–1] | > 2.5E+9
GPILANYSDITN [Z13 PhD 12–3] | > 2.5E+9
QHWNYFDLSEQQ [Z13 PhD 12–2] | > 2.5E+9
MELDKWA (disulfide (positions not given here)) [2F5 PhD c7c-1] | > 2.5E+9
SVSVGMKPSPRP [4E10 PhD 12–2] | > 2.5E+9

Tested on: HIV-1 PSVs
Experiment: TZMbl neutralization assay of immunized mouse sera
Conditions: animals immunized with mimotopes alone; TZMbl and PBMC assays, Fig. 5

Substance | neutralizing responses of sera
GYWSDYWGMTTH [4E10 PhD 12–7] | detectable, low titer neutralizing responses
LPNWFNLSSNLM [4E10 PhD 12–11] | detectable, low titer neutralizing responses
